Experimental data published in paper PMC5845645, “QSAR-Driven Design and Discovery of Novel Compounds With Antiplasmodial and Transmission Blocking Activities” (Frontiers in Pharmacology, 2018).
Where two headings read alike, the source gives them in different places.

Columns and labels:
P. falciparum 3D7 = assay: Growth inhibition by SYBR Green I, chloroquine-sensitive strain; type: cell-based; details: Plasmodium falciparum, read-out: IC50 3D7
Protocol: (§1) Chloroquine-sensitive (3D7) and multidrug-resistant (W2) strains were cultured in RPMI 1640 medium supplemented with 0.05 mg/mL gentamycin, 38.4 mM HEPES, 0.2% sodium bicarbonate, and 10% O^+ human serum, as previously described in a standardized protocol ([Trager and Jensen, 1976]). Then, erythrocytes were added to the culture to obtain a 5% hematocrit, and incubated at 37°C under 5% CO2 atmosphere, with daily exchange of medium. The parasitemia was monitored daily in smears stained with Giemsa. Synchronic cultures in the ring stage were obtained by two consecutive treatments at 48 h intervals with a 5% solution of D-sorbitol ([Lambros and Vanderberg, 1979]).
(§2) Parasites synchronized at the ring stage, with 0.5% parasitemia and 2% hematocrit were distributed in each well, separately. The compounds were tested in triplicates, using 12 point of concentration, prepared in two-fold dilution (40 μM – ∼0.019 μM) over 72 h. Chloroquine and pyrimethamine were used as control. Subsequently, the in vitro susceptibility of parasite to tested drugs was measured by SYBR Green according to [Hartwig et al. (2013)]. Briefly, 100 μL of lysis buffer (20 mM Tris, 5 mM EDTA, 0.008% wt/vol saponin, 0.08% vol/vol Triton X-100, and 0.4 μL/mL of SYBR Green) were added in each well of a new black 96-well plate and 100 μL of parasite culture incubated with drugs were added. After homogenization, the plates were incubated for 1 h in the dark. Fluorescence was measured at 490 nm excitation and 540 nm emission (CLARIOstar, Labtech BMG). The IC50 was calculated by plotting the Log doses vs. Inhibition (expressed as a percentage relative to the control) in Prism 6 (GraphPad Software Inc.).

P. falciparum W2 = assay: Growth inhibition by SYBR Green I, multidrug-resistant strain; type: cell-based; details: Plasmodium falciparum, read-out: IC50 W2
Protocol: as §1, §2

PfdUTPase = molecular target: PfdUTPase; set-up: method as in earlier work; details: pKi = -logKi of literature Ki, ref Nguyen et al., 2005, 2006, Whittingham et al., McCarthy et al., 2009, Baragaña et al., 2011, Hampton et al., Ruda et al.; cited from earlier work
[1] = Cytotoxicity assay (MTT reduction); type: cell-based, monkey; details: monkey; COS7 cells, 72 h
Protocol: (§3) Cytotoxicity assays used COS7 cells (fibroblast-like cell lines derived from monkey kidney tissue), grown in DMEM medium supplemented with 10% fetal bovine serum and 0.05 mg/mL gentamicin in atmosphere containing 5% CO2 at 37°C. Drug cytotoxicity in COS7 cells was determined in duplicate, using 12 point of concentration, prepared in two-fold dilution (200 μM – ∼ 0.097 μM). After the incubation period (72 h), the cell viability analysis were done by the MMT reduction method (3-[4,5-dimethyl-thiazol-2-yl]-2,5-diphenyltetrazolium […] ([Mosmann, 1983]). The optical density was determined at 570 nm (CLARIOstar, Labtech BMG) and the 50% cytotoxicity concentrations (CC50) was expressed as the percent viability relative to the control. The selectivity index of the compounds was determined by the following expression:
(§4) Where COS7 CC50 corresponds to the 50% cytotoxic concentration on COS7 cells and Pf IC50 is the 50 % inhibitory concentration on P. falciparum (3D7).

COS7 cells = assay: Cytotoxicity assay (MTT reduction); type: cell-based, monkey; details: selectivity index = COS7 CC50 / Pf IC50 (3D7)
Protocol: as §3, §4

[2] = set-up: method as in Hit2Lead library; details: calculated; ref Hit2Lead library; cited from earlier work
P. berghei ANKA = assay: Ookinete assay (gametocyte to ookinete conversion); type: cell-based; details: Plasmodium berghei, 24 h, 21°C, ookinete formation relative to DMSO control
Protocol: All animal procedures were carried out in accordance to the Brazilian College of Animal Experimentation (COBEA). This research protocol was approved by the Ethics Committee of the Institute of Biomedical Sciences – University of Sao Paulo, protocol number 132/2014-CEUA. C57BL/6 mice received an intraperitoneal injection of P. berghei ANKA infected erythrocytes, and four days after infection, a mouse with parasitemia between 4 and 6% and gametocytemia > 0.4% was selected as blood donor for cardiac puncture. Four microliters of the infected blood was dispensed in 80 μl of ookinete medium ([Blagborough et al., 2012]) at 21°C with DMSO control or with 10 μM of the tested compounds. The assay was incubated at 21°C for 24 h and 2 μl of the blood at the bottom of the tubes was spread onto a glass slide, stained with Giemsa and analyzed under a direct light microscope. The total number of formed ookinetes were counted in each slide (triplicate for each condition), and inhibition was calculated in relation to the total ookinetes formed in the control condition.

[3] = asexual blood stage, chloroquine-sensitive 3D7, 72 h
[4] = asexual blood stage, multidrug-resistant W2, 72 h

## CCN(CC)CCCC(C)Nc1ccnc2cc(Cl)ccc12 (stereo not drawn) [Chloroquine, reference compound]
P. falciparum 3D7; 3D7, 72 h
  IC50: 0.011 ± 0.0006 µM
P. falciparum W2; W2, 72 h
  IC50: 0.181 ± 0.027 µM

## O=c1ccn(C2CC(O)C(CNC(c3ccccc3)(c3ccccc3)c3ccccc3)O2)c(=O)[nH]1 (stereo not drawn) [Compound 1]
PfdUTPase
  PfdUTPase inhibition (pKi): 6.70

## O=c1ccn([C@H]2C[C@H](O)[C@@H](CNC(c3ccccc3)c3ccccc3)O2)c(=O)[nH]1 [Compound 3, 2′,5′-dideoxy-5′-[(diphenylmethyl)amino]uridine]
PfdUTPase
  PfdUTPase inhibition (pKi): 6.70

## O=C(O)CCCNC(=O)C(CCOC(c1ccccc1)(c1ccccc1)c1ccccc1)Cn1ccc(=O)[nH]c1=O (stereo not drawn) [Compound 4]
PfdUTPase
  PfdUTPase inhibition (pKi): 6.70

## N#Cc1ccc(C(OCC2OC(n3ccc(=O)[nH]c3=O)CC2O)(c2ccccc2)c2ccccc2)cc1 (stereo not drawn) [Compound 20]
PfdUTPase
  PfdUTPase inhibition (pKi): 6.03

## CC(C)(C)[Si](C)(C)OC1CC(n2ccc(=O)[nH]c2=O)OC1CNP(=O)(Oc1ccccc1)Oc1ccccc1 (stereo not drawn) [Compound 87]
PfdUTPase
  PfdUTPase inhibition (pKi): 4.17

## CC(C)(C)[Si](C)(C)OC1CC(n2ccc(=O)[nH]c2=O)OC1CO (stereo not drawn) [Compound 127]
PfdUTPase
  PfdUTPase inhibition (pKi): 3.19

## COc1ccc(C(OCC2OC3C(Oc4nc(=O)ccn43)C2O)(c2ccccc2)c2ccc(OC)cc2)cc1 (stereo not drawn) [LabMol-144]
P. falciparum 3D7; [3]
  IC50: 7.1 ± 2.53 µM
[1]
  CC50 at 72 h: 81.7 ± 25.7 µM
COS7 cells
  SI: 11.7
[2]
  logS: −5.36
P. berghei ANKA
  inhibition at 10 µM: 44.6 ± 2.4%
P. falciparum W2; [4]
  IC50: 4.23 ± 1.18 µM

## COc1ccc2c(c1)c(/C=C/c1nc3ccccc3c(=O)n1-c1ccccc1)c(C)n2C [LabMol-145]
P. falciparum 3D7; [3]
  IC50: 17.1 ± 16.2 µM
[1]
  CC50 at 72 h: 46 ± 13.4 µM
COS7 cells
  SI: 2.7
[2]
  logS: −6.74
P. berghei ANKA
  inhibition at 10 µM: 13.2 ± 24%
P. falciparum W2; [4]
  IC50: 15.3 ± 3.29 µM

## COc1ccc(C(OCC2OC(n3ccc(=O)[nH]c3=O)C(O)C2O)(c2ccccc2)c2ccccc2)cc1 (stereo not drawn) [LabMol-146]
P. falciparum 3D7; [3]
  IC50: 6.1 ± 1.95 µM
[1]
  CC50 at 72 h: 52 ± 16.4 µM
[2]
  logS: −5.04
P. berghei ANKA
  inhibition at 10 µM: 7.3 ± 7.3%
P. falciparum W2; [4]
  IC50: 3.2 ± 2.12 µM

## CCc1nc(N)nc(N)c1-c1ccc(Cl)cc1 [Pyrimethamine, reference compound]
P. falciparum 3D7; [3]
  IC50: 0.044 ± 0.009 µM
P. falciparum W2; [4]
  IC50: 14.7 ± 3.94 µM
